The values below come from the METLIN SMRT retention time set (Domingo-Almenara et al. 2019).

This data set is described as follows: gradient 5% acetonitrile 3 min, to 50% in 2 min, to 85% in 15 min, held 3 min, 100 µL/min. Particulars: column: Zorbax Extend-C18 2.1 x 50 mm; eluents: water / acetonitrile, 0.1% formic acid. An outline of the steps:
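In both positive and negative ionization mode, a quadrupole time-of-flight mass spectrometer coupled to HPLC analyzed pure standards run in mixtures of ~100 molecules. The Zorbax Extend-C18 column (2.1 × 50 mm, 1.8 μm) was operated at 100 μL/min with water and acetonitrile, each containing 0.1% formic acid. The dead volume was 40 μL and the dwell volume 900 μL. Retention time came from adduct peaks that were computationally picked and individually inspected by hand.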
The molecule `COc1ccc(NC(=O)N2c3ccccc3CC2c2nc(C3CC3)no2)c(OC)c1` (centres undefined) gave an RP-LC retention time of 1030 s.
As to `O=C(COc1ccccc1F)NCC1CN(c2ccc3c(c2)OCO3)C(=O)O1` (centres undefined), the RP-LC retention time was determined as 721 s.
`COc1ccc(-c2nc(Cc3noc(-c4cccc(F)c4)n3)c(C)o2)cc1` registered an RP-LC retention time of 1040 s.
In the case of `CCN1CCCC1CNC(=O)c1ccc2nc(Cc3ccccc3)oc2c1` (centres undefined) it was 650 s.
In the case of `O=S(=O)(NCC1(c2cccs2)CCCC1)c1cccnc1` it was 827 s; in that of `O=C(Cc1nnc(-c2ccncc2)o1)NCc1ccc(C(F)(F)F)cc1`, 718 s.
With `NCCC1CCN(C(=O)Nc2ccc(F)cc2F)CC1` the figure was 585 s; with `CCOc1ccc(NC(=O)C2CCN(S(=O)(=O)c3ccc4c(c3)CCCC(=O)N4)CC2)cc1`, 816 s; with `CC(=O)N1CCc2c([nH]c3ccccc23)C12C(=O)N(CCC(C)C)c1ccc(Br)cc12` (centres undefined), 1040 s.
For the molecule `COC(=O)c1cccc(NC(=O)c2sc(-c3cn(C(C)C)c4ncccc34)nc2C)c1`, the RP-LC retention time was 1060 s.
With `O=C(Nc1cccc(F)c1)c1nnc(CSCC(=O)N2CCN(c3ccccn3)CC2)s1`, the RP-LC retention time is 654 s.
The molecule `COc1ccc(CC(=O)N2CCc3nc(CNC(=O)C4CCC4)n(C)c3C2)cc1` had an RP-LC retention time of 589 s.
With `CCN1CCn2cc(S(=O)(=O)N3CCN(c4cccc(Cl)c4)CC3)cc2C1=O` the figure was 872 s; with `CCNC(=O)Nc1ccc(OCC(=O)NCc2cccc(OC)c2)nc1`, 669 s; with `Cc1cc(C)c(Cn2cnc3ccccc32)c(C)c1`, 611 s.
With `Cc1nccn1CC(=O)N1CCCC(OCc2nc(C3CC3)no2)C1` (centres undefined) the figure was 577 s; with `COc1ccc(-c2nc3cc(C)ccn3c2Nc2ccc3c(c2)OCCO3)cc1`, 714 s.
For `O=c1ccc(-c2ccc(F)cc2)nn1CCc1nc(-c2ccc(Cl)cc2)no1`, the RP-LC retention time turned out to be 1060 s.
In the case of `O=C(c1ccc(C(F)(F)F)s1)N1C[C@@H]2C[C@H]1C[C@@H]2NS(=O)(=O)c1cccs1` it was 813 s; in that of `O=C(Cn1c(=O)c2cccn2c2ccc(F)cc21)NCCCN1CCOCC1`, 602 s; in that of `CCc1nc2c(NC(=O)c3ccc(F)c(Cl)c3)cccn2n1`, 924 s.
With `COc1ccc(C2(C(=O)N3CCN(S(=O)(=O)c4c(C)nn(C(C)C)c4C)CC3)CC2)cc1` the figure was 889 s.
In the case of `Cc1nn2c(CNS(=O)(=O)c3cccc(F)c3)c(-c3ccccc3)nc2s1` it was 852 s; in that of `Cc1ccc(NC(=O)C2CC(=O)N(c3ccc4oc(C)nc4c3)C2)c(F)c1` (centres undefined), 741 s; in that of `COc1cccc(-c2nnc(NC(=O)c3ccccc3Br)o2)c1`, 734 s.
On to `CN(CC1CCOC1)C(=O)Nc1ccc(Cl)cc1` (centres undefined), for which the RP-LC retention time came to 696 s.
In the case of `O=C(Nc1cc(-c2ccccn2)no1)c1cccc(F)c1` it was 791 s.
`Cc1ccc(-n2c(SCc3nc(-c4ccc(F)cc4)no3)nc3cc4c(cc3c2=O)OCO4)cc1` came in with an RP-LC retention time of 1220 s.
`O=C(Nc1ccccc1-c1nc2ccccc2s1)c1ccno1` had an RP-LC retention time of 728 s.
In the case of `O=C(CN1c2ccc(F)cc2-c2ccccc2S1(=O)=O)NCc1cccnc1` it was 646 s.
For the molecule `CCOc1ccccc1C(=O)Nc1ccc(Cl)c(C(F)(F)F)c1`, the RP-LC retention time came to 1230 s.
Molecule `CCc1cccc(NC(=O)Nc2cnn(-c3ncc(N(C)C)cn3)c2)c1` registered an RP-LC retention time of 772 s.
`CCSc1nc2ccc(NS(=O)(=O)c3ccc(CC)cc3)cc2s1` returned an RP-LC retention time of 1120 s.
In the case of `CSc1cccc(NC(=O)c2cnc(-c3ccc(C)cc3)nc2-c2ccncc2)c1` it was 1010 s.
In turn, `Nc1nc(N2CCOCC2)ncc1C(=O)NCc1ccccc1F` had an RP-LC retention time of 626 s.
With `O=S(=O)(Cc1cccc(F)c1)NCC1CCN(Cc2ccsc2)CC1` the figure was 578 s; with `Cc1nn(CC(=O)NCc2cccs2)c(=O)c2nc(-c3ccccc3)sc12`, 813 s; with `CCc1ccc(-n2c(-c3ccc(Cl)cc3)cn3c4c(=O)n(C)c(=O)n(C)c4nc23)cc1`, 1150 s.
`O=C(Cc1c(F)cccc1Cl)Nc1nnc(C2CC(=O)N(c3ccccc3)C2)o1` (centres undefined) showed an RP-LC retention time of 691 s.
`O=C(Cn1nc2c(Oc3ccc(Cl)cc3)nccn2c1=O)Nc1ccc(F)c(Cl)c1` returned an RP-LC retention time of 990 s.
In the case of `CC(C)NC(=O)c1ccc(OCC2CCCN(C(=O)c3ccc(Br)o3)C2)cc1` (centres undefined) it was 876 s; in that of `COc1ccc2ncc(C(=O)c3ccc(C)cc3)c(N3CCN(C)CC3)c2c1`, 582 s; in that of `O=C(Nc1ccccc1)c1ccc(=O)n(CCN2CCOCC2)c1`, 590 s.
With `Cc1cc(C)cc(-n2ccn(Cc3nc(-c4ccc(C(C)(C)C)cc4)no3)c(=O)c2=O)c1` the figure was 1130 s; with `CCOc1ccccc1NC(=O)N1CCCC1c1c(C)noc1C` (centres undefined), 833 s; with `O=C(NCc1csc(-c2cccs2)n1)C1CCN(C(=O)Cc2ccc(F)cc2)CC1`, 778 s.
With `O=C(Cn1cnc2c(nnn2Cc2ccc(F)cc2)c1=O)N1CCCc2ccccc21` the figure was 822 s; with `O=C1CCN(C(=O)C2CCN(C(=O)CC3CCCC3)CC2)CCCCCCN1`, 686 s.
In the case of `CC(=O)c1ccc(OC(=O)c2cc3c(C)nn(-c4cccc(F)c4)c3s2)cc1`, the RP-LC retention time was 779 s.
With `Cc1nn(C)c2nc(OC(C)C(=O)NCc3ccccc3Cl)cc(C(F)(F)F)c12` (centres undefined) the figure was 1020 s; with `O=C(Nc1ccc2c(c1)OCCO2)N1CCN(c2cc(-c3ccccc3)ncn2)CC1`, 645 s.
With `O=C(Cn1nc2c(N3CCCCCC3)nccn2c1=O)Nc1ccc2c(c1)OCO2` the figure was 667 s; with `CCCCNC(=O)Cc1nnc(-c2ccc(C)cc2)o1`, 755 s; with `CCC(C(=O)N1CCN(c2ccc(-c3ccc4c(c3)OCO4)nn2)CC1)c1ccccc1` (centres undefined), 723 s.
In turn, `O=C(NCCc1ccccn1)C1CC(=O)N(c2n[nH]c3cc(Br)ccc23)C1` (centres undefined) returned an RP-LC retention time of 600 s.
For the molecule `CCOc1ccc(-c2csc(C)n2)cc1S(=O)(=O)Nc1ccc(F)cc1`, the RP-LC retention time came out at 985 s.
As to `O=C(Nc1ccc(-c2ccc3nnc(-c4ccncc4)n3n2)cc1)c1cccc(Cl)c1`, the RP-LC retention time is 675 s.
In the case of `COc1ccc(NC(=O)Cn2c(=O)n(-c3ccc(C)cc3)c3ncccc32)c(C)c1` it was 833 s; in that of `COc1ccc(/C=C/c2nc(-c3cccc(-c4ccnn4C)c3)no2)cc1OC`, 1050 s.
